PubChem BioAssay (NCI)
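Interpolation was linear, between the two tested concentrations surrounding the appropriate level; five concentrations were tested over 48 hours in 96-well plates. Definition used: TGI = concentration required for complete inhibition of growth.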

What was measured:
Experiment in all cases: growth of human tumour cells (NCI), 48 h
NCI/ADR-RES ovarian = system: NCI/ADR-RES ovarian
SW-620 colon = system: SW-620 colon
HT29 colon = system: HT29 colon
U251 CNS = system: U251 CNS
OVCAR-3 ovarian = system: OVCAR-3 ovarian
MDA-MB-435 = system: MDA-MB-435
M14 melanoma = system: M14 melanoma
SN12C renal = system: SN12C renal
NCI-H226 lung = system: NCI-H226 lung
T-47D breast = system: T-47D breast
IGROV1 ovarian = system: IGROV1 ovarian
HOP-92 NSCLC = system: HOP-92 NSCLC
MOLT-4 leukemia = system: MOLT-4 leukemia
SF-295 CNS = system: SF-295 CNS
NCI-H23 lung = system: NCI-H23 lung
RPMI-8226 leukemia = system: RPMI-8226 leukemia
EKVX NSCLC = system: EKVX NSCLC
KM12 colon = system: KM12 colon
SNB-19 CNS = system: SNB-19 CNS
UO-31 renal = system: UO-31 renal
BT-549 breast = system: BT-549 breast
OVCAR-4 ovarian = system: OVCAR-4 ovarian
786-0 renal = system: 786-0 renal
SF-539 CNS = system: SF-539 CNS
HCT-15 colon = system: HCT-15 colon
A498 renal = system: A498 renal
OVCAR-5 ovarian = system: OVCAR-5 ovarian
NCI-H460 lung = system: NCI-H460 lung
MDA-N = system: MDA-N
HCT-116 colon = system: HCT-116 colon
A549 NSCLC = system: A549 NSCLC
K-562 leukemia = system: K-562 leukemia
RXF 393 renal = system: RXF 393 renal
CAKI-1 renal = system: CAKI-1 renal
SK-MEL-28 melanoma = system: SK-MEL-28 melanoma
UACC-62 melanoma = system: UACC-62 melanoma
SR leukemia = system: SR leukemia
MDA-MB-231 breast = system: MDA-MB-231 breast
HOP-62 NSCLC = system: HOP-62 NSCLC
ACHN renal = system: ACHN renal
SF-268 CNS = system: SF-268 CNS
SNB-75 CNS = system: SNB-75 CNS
LOX IMVI melanoma = system: LOX IMVI melanoma
UACC-257 melanoma = system: UACC-257 melanoma
COLO 205 colon = system: COLO 205 colon
PC-3 prostate = system: PC-3 prostate
HL-60(TB) leukemia = system: HL-60(TB) leukemia
CCRF-CEM leukemia = system: CCRF-CEM leukemia
HCC-2998 colon = system: HCC-2998 colon
TK-10 renal = system: TK-10 renal
HS 578T breast = system: HS 578T breast
OVCAR-8 ovarian = system: OVCAR-8 ovarian
DU-145 prostate = system: DU-145 prostate
SK-OV-3 ovarian = system: SK-OV-3 ovarian
SK-MEL-2 melanoma = system: SK-MEL-2 melanoma
MALME-3M melanoma = system: MALME-3M melanoma
MCF7 breast = system: MCF7 breast
NCI-H522 lung = system: NCI-H522 lung
SK-MEL-5 melanoma = system: SK-MEL-5 melanoma

Measured: TGI

Cc1ccc2c(c1)C(=C(C#N)C#N)CCCS2(=O)=O
not listed: MALME-3M melanoma | MCF7 breast | NCI-H522 lung | SK-MEL-5 melanoma
> 100 µM: all other assays above

COc1cc(OC)cc(OCc2nc3cc(C(F)(F)F)ccc3nc2-c2ccccc2)c1
not listed: A498 renal | SK-MEL-5 melanoma
> 100 µM: all other assays above

CC1=C(C(=O)OC2CC3CCC2(C)C3(C)C)C2Nc3ccccc3N(C)C2O1 (configuration not stated)
20.8 µM: HOP-92 NSCLC
7.9 µM: SK-MEL-2 melanoma
11.2 µM: ACHN renal
3.04 µM: SF-295 CNS
4.29 µM: UACC-62 melanoma
14.5 µM: SK-OV-3 ovarian
2.79 µM: DU-145 prostate
22.5 µM: SF-268 CNS
3.22 µM: M14 melanoma
9.02 µM: OVCAR-8 ovarian
6.59 µM: NCI-H23 lung
6.78 µM: RPMI-8226 leukemia
11.9 µM: OVCAR-3 ovarian
3.08 µM: HT29 colon
25.9 µM: OVCAR-5 ovarian
21.1 µM: EKVX NSCLC
2.4 µM: COLO 205 colon
> 29.4 µM: K-562 leukemia
9.52 µM: SR leukemia
7.19 µM: UO-31 renal
39.3 µM: NCI-H226 lung
3.55 µM: MDA-N
9.09 µM: 786-0 renal
4.02 µM: NCI-H522 lung
3.7 µM: NCI-H460 lung
10.1 µM: SNB-19 CNS
6.69 µM: MOLT-4 leukemia
16.3 µM: HS 578T breast
18.9 µM: A498 renal
12.6 µM: NCI/ADR-RES ovarian
4.25 µM: SN12C renal
16.6 µM: U251 CNS | HOP-62 NSCLC
11.8 µM: T-47D breast
10.5 µM: CAKI-1 renal
4.53 µM: A549 NSCLC
7.36 µM: HCT-116 colon
3.53 µM: SK-MEL-5 melanoma
6.97 µM: IGROV1 ovarian
8.67 µM: KM12 colon
7.07 µM: CCRF-CEM leukemia
16 µM: SK-MEL-28 melanoma
5.6 µM: HCT-15 colon
3.91 µM: HCC-2998 colon
12.3 µM: PC-3 prostate
6.12 µM: LOX IMVI melanoma
11.5 µM: SNB-75 CNS
3.3 µM: UACC-257 melanoma
18.5 µM: RXF 393 renal
6.43 µM: BT-549 breast
16.9 µM: MDA-MB-231 breast
6.99 µM: SW-620 colon
17.4 µM: TK-10 renal
4.97 µM: HL-60(TB) leukemia
3.13 µM: MDA-MB-435

COc1ccc(N=c2oc3ccccc3cc2C(N)=O)cc1
14.8 µM: UO-31 renal
42.6 µM: SF-268 CNS
42.9 µM: HS 578T breast
24.7 µM: SNB-19 CNS
34.8 µM: HOP-62 NSCLC
37.1 µM: ACHN renal
63.6 µM: SF-539 CNS
75.1 µM: SF-295 CNS
93.1 µM: NCI-H522 lung
87.7 µM: MCF7 breast
32.4 µM: CAKI-1 renal
46.6 µM: TK-10 renal
47.7 µM: SK-OV-3 ovarian
68.8 µM: 786-0 renal
not listed: OVCAR-4 ovarian | A498 renal | OVCAR-5 ovarian | MALME-3M melanoma
> 100 µM: all other assays above
